In US9839642B2, “Beta-tetrazolyl-propionic acids as metallo-beta-lactamase inhibitors” (priority 2014, dated 2017):
Read-outs that look alike come from different tables or passages of the source.

Columns and labels:
IMP-1 = IMP-1 (Serratia marcescens, UniProt P52699); assay: Enzyme activity: determination of IC50, fluorescence assay with CCF2-FA substrate; assay type: biochemical; conditions: CCF2-FA 1.25 μM, 2 hours at 25° C., read-out: IMP1 IC50
How it was run: (§1)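 100 mM KH2PO4 pH 7 + 0.005% Tween-20 + 10 μM ZnSO4; CCF2-FA 1.25 μM; NDM-1 1 pM, IMP-1 2 pM, VIM-1 30 pM; cpd 20–0.00063 μM final, DMSO 1:50. 2 h, 25° C. Ex 405/em 460 nm; IC50, 4-param fit.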

NDM-1 = NDM-1 (Klebsiella pneumoniae, UniProt C7C422); assay: as above; assay type: biochemical; conditions: CCF2-FA 1.25 μM, 2 hours at 25° C.
How it was run: as §1

VIM-1 = VIM-1 (Pseudomonas aeruginosa, UniProt A0A0F7KYQ8); assay: as above; assay type: biochemical; conditions: CCF2-FA 1.25 μM, 2 hours at 25° C., read-out: VIM1 IC50
How it was run: as §1

[1] = system: Escherichia coli expressing NDM-1 (CLB30016); assay: Antibiotic potentiation activity: synergistic concentration (MITC95) with imipenem, growth by OD600; assay type: cell-based
How it was run: (§2)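 MITC95 = lowest inhibitor concentration giving 95% growth inhibition, read by absorbance after 22–24 h at 35° C. Compound range 200 μM to 0.195 μM, imipenem fixed at 1 or 4 μg/ml, bacteria in 1.1×CAMHB from saline suspension diluted 1:100.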

[2] = system: Klebsiella pneumoniae expressing VIM-1 (IHMA599644); assay: as above; assay type: cell-based
How it was run: as §2

[3] = system: Serratia marcescens expressing IMP-1 (CL5741); assay: as above; assay type: cell-based
How it was run: as §2

[4] = NDM-1 enzyme 1 pM, read-out: NDM1 IC50
[5] = E. coli CLB30016 (NDM-1), 95% inhibition of growth
[6] = K. pneumoniae IHMA599644 (VIM-1), 95% inhibition of growth
[7] = S. marcescens CL5741 (IMP-1), 95% inhibition of growth
[8] = enzyme 1 pM, read-out: NDM1 IC50
[9] = 95% inhibition of bacterial growth, strain CLB30016
[10] = 95% inhibition of bacterial growth, strain IHMA599644
[11] = 95% inhibition of bacterial growth, strain CL5741

NDM-1, sequence (C7C422 29-270, looked up, species assumed): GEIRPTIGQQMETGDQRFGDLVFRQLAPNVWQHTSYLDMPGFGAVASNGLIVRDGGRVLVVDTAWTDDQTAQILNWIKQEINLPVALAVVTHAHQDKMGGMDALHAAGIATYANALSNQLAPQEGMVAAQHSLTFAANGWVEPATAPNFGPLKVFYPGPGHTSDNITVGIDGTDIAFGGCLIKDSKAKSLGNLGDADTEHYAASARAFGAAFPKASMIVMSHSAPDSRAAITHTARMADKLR
IMP-1, sequence (P52699 19-246, looked up, species assumed): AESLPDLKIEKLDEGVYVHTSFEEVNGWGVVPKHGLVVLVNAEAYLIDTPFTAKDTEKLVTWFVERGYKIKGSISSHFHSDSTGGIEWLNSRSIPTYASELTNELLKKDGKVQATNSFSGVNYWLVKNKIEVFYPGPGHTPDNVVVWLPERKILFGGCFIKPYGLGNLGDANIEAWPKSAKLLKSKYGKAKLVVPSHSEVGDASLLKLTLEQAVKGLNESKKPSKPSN

CC(C)(C)[C@H](C(=O)O)[C@H](Cc1ccc(NCCN)nc1)c1nnn[nH]1.O=C(O)C(F)(F)F [Example 427, 2-((5-((2S,3R)-3-carboxy-4,4-dimethyl-2-(1H-tetrazol-5-yl)pentyl)pyridin-2-yl)amino)ethan-1-aminium 2,2,2-trifluoroacetate]
IC50 (IMP-1; IMP-1 enzyme 2 pM): 342 nM
IC50 (NDM-1; [4]): 119 nM
IC50 (VIM-1; VIM-1 enzyme 30 pM): 17.9 nM
NDM1 EC30016 MITC95 [1, 5]: 1.563 µM
VIM1 KP599644 MITC95 [2, 6]: 9.375 µM
IMP1 SM5741 MITC95 [3, 7]: 3.125 µM

CC(C)C[C@H](C(=O)O)[C@H](Cc1ccc(-c2ccc(S(N)(=O)=O)cc2)cn1)c1nn[nH]n1 [Example 175, (2S)-4-methyl-2-[(1S)-2-[5-(4-sulfamoylphenyl)pyridin-2-yl]-1-(2H-tetrazol-5-yl)ethyl]pentanoic acid]
IC50 (IMP-1; enzyme 2 pM): 840 nM
IC50 (NDM-1; [8]): 19 nM
IC50 (VIM-1; enzyme 30 pM): 12 nM
NDM1 EC30016 MITC95 [1, 9]: 18.8 µM
VIM1 KP599644 MITC95 [2, 10]: 50 µM
IMP1 SM5741 MITC95 [3, 11]: 75 µM

CC(C)C[C@H](C(=O)O)[C@H](Cc1ccc(Oc2ccc(CO)cc2)nc1)c1nn[nH]n1 [Example 383, (2S)-2-[(1S)-2-{6-[4-(hydroxymethyl)phenoxy]pyridin-3-yl}-1-(2H-tetrazol-5-yl)ethyl]-4-methylpentanoic acid]
IC50 (IMP-1; IMP-1 enzyme 2 pM): 150 nM
IC50 (NDM-1; [4]): 34 nM
IC50 (VIM-1; VIM-1 enzyme 30 pM): 56 nM
NDM1 EC30016 MITC95 [1, 5]: 25 µM
VIM1 KP599644 MITC95 [2, 6]: 150 µM
IMP1 SM5741 MITC95 [3, 7]: 12.5 µM

CC(C)C[C@H](C(=O)O)[C@H](Cc1ccc(NCCO)nc1)c1nnn[nH]1 [Example 134, (S)-2-((S)-2-(6-((2-hydroxyethyl)amino)pyridin-3-yl)-1-(1H-tetrazol-5-yl)ethyl)-4-methylpentanoic acid]
IC50 (IMP-1; enzyme 2 pM): 230 nM
IC50 (NDM-1; [8]): 88 nM
IC50 (VIM-1; enzyme 30 pM): 6.6 nM
NDM1 EC30016 MITC95 [1, 9]: 0.78 µM
VIM1 KP599644 MITC95 [2, 10]: 18.8 µM
IMP1 SM5741 MITC95 [3, 11]: 4.7 µM

CC(C)[C@H](C(=O)O)[C@H](Cc1ccc(OCC(N)CO)nc1)c1nnn[nH]1 (stereo partly drawn) [Example 142, (2S,3S)-4-(6-(2-amino-3-hydroxypropoxy)pyridin-3-yl)-2-isopropyl-3-(1H-tetrazol-5-yl)butanoic acid]
IC50 (IMP-1; enzyme 2 pM): 5000 nM
IC50 (NDM-1; [8]): 340 nM
IC50 (VIM-1; enzyme 30 pM): 130 nM
NDM1 EC30016 MITC95 [1, 9]: 3.1 µM
VIM1 KP599644 MITC95 [2, 10]: 25 µM
IMP1 SM5741 MITC95 [3, 11]: 50 µM

CC(C)C[C@H](C(=O)O)[C@H](Cc1ccc(NC2CNCc3ccccc32)nc1)c1nnn[nH]1 (stereo partly drawn) [Example 319, (2S)-4-methyl-2-[(1S)-2-[6-(1,2,3,4-tetrahydroisoquinolin-4-ylamino)pyridin-3-yl]-1-(1H-tetrazol-5-yl)ethyl]pentanoic acid]
IC50 (IMP-1; IMP-1 enzyme 2 pM): 1000 nM
IC50 (NDM-1; [4]): 350 nM
IC50 (VIM-1; VIM-1 enzyme 30 pM): 13 nM
NDM1 EC30016 MITC95 [1, 5]: 12.5 µM
VIM1 KP599644 MITC95 [2, 6]: 25 µM
IMP1 SM5741 MITC95 [3, 7]: 18.8 µM

CC(C)C[C@H](C(=O)O)[C@H](Cc1ccc(-c2ccc(C(N)=O)cc2)c(F)c1)c1nn[nH]n1 [Example 456, (S)-2-((S)-2-(4′-carbamoyl-2-fluoro-[1,1′-biphenyl]-4-yl)-1-(2H-tetrazol-5-yl)ethyl)-4-methylpentanoic acid]
IC50 (IMP-1; IMP-1 enzyme 2 pM): 7.09 nM
IC50 (NDM-1; [4]): 4.35 nM
IC50 (VIM-1; VIM-1 enzyme 30 pM): 0.637 nM
NDM1 EC30016 MITC95 [1, 5]: 18.75 µM
VIM1 KP599644 MITC95 [2, 6]: 37.5 µM
IMP1 SM5741 MITC95 [3, 7]: 0.7813 µM

CCC[C@H](C(=O)O)[C@H](Cc1cnc(N2CCNCC2)nc1)c1nnn[nH]1 [Example 288, (S)-2-((S)-2-(2-(piperazin-1-yl)pyrimidin-5-yl)-1-(1H-tetrazol-5-yl)ethyl)pentanoic acid]
IC50 (IMP-1; IMP-1 enzyme 2 pM): > 20000 nM
IC50 (NDM-1; NDM1 IC50, NDM-1 enzyme 1 pM): 520 nM
IC50 (VIM-1; VIM-1 enzyme 30 pM): 4.1 nM
NDM1 EC30016 MITC95 [1, 5]: 12.5 µM
VIM1 KP599644 MITC95 [2, 6]: 12.5 µM
IMP1 SM5741 MITC95 [3, 7]: 150 µM

CCC[C@H](C(=O)O)[C@H](Cc1ccc(N2CCN(c3ccccc3)CC2)cc1)c1nn[nH]n1 [Example 226, (2S)-2-[(1S)-2-[4-(4-phenylpiperazin-1-yl)phenyl]-1-(2H-tetrazol-5-yl)ethyl]pentanoic acid]
IC50 (IMP-1; enzyme 2 pM): 39 nM
IC50 (NDM-1; [8]): 20 nM
IC50 (VIM-1; enzyme 30 pM): 66 nM
NDM1 EC30016 MITC95 [1, 9]: 38 µM
VIM1 KP599644 MITC95 [2, 10]: >200 µM
IMP1 SM5741 MITC95 [3, 11]: 3.1 µM

CC(C)C[C@H](C(=O)O)[C@H](Cc1ccc(N)nc1)c1nnn[nH]1 [Example 112, 2-amino-5-((2S,3S)-3-carboxy-5-methyl-2-(2H-tetrazol-5-yl)hexyl)pyridin-1-ium 2,2,2-trifluoroacetate]
IC50 (IMP-1; enzyme 2 pM): 570 nM
IC50 (NDM-1; [8]): 110 nM
IC50 (VIM-1; enzyme 30 pM): 4.9 nM
NDM1 EC30016 MITC95 [1, 9]: 0.54 µM
VIM1 KP599644 MITC95 [2, 10]: 5.5 µM
IMP1 SM5741 MITC95 [3, 11]: 11 µM

CC(C)C[C@H](C(=O)O)[C@H](Cc1ccc(N2CC(N)C2)nc1)c1nnn[nH]1 [Example 327, (2S)-2-[(1S)-2-[6-(3-aminoazetidin-1-yl)pyridin-3-yl]-1-(1H-tetrazol-5-yl)ethyl]-4-methylpentanoic acid]
IC50 (IMP-1; IMP-1 enzyme 2 pM): 2600 nM
IC50 (NDM-1; [4]): 470 nM
IC50 (VIM-1; VIM-1 enzyme 30 pM): 17 nM
NDM1 EC30016 MITC95 [1, 5]: 9.4 µM
VIM1 KP599644 MITC95 [2, 6]: 38 µM
IMP1 SM5741 MITC95 [3, 7]: 38 µM

CCC[C@H](C(=O)O)[C@H](Cc1cccc(-c2cnc(N)c(F)c2)c1)c1nn[nH]n1 [Example 356, (2S)-2-[(1S)-2-[3-(6-amino-5-fluoropyridin-3-yl)phenyl]-1-(2H-tetrazol-5-yl)ethyl]pentanoic acid]
IC50 (IMP-1; IMP-1 enzyme 2 pM): 170 nM
IC50 (NDM-1; [4]): 6.2 nM
IC50 (VIM-1; VIM-1 enzyme 30 pM): 1.5 nM
NDM1 EC30016 MITC95 [1, 5]: 25 µM
VIM1 KP599644 MITC95 [2, 6]: 18.8 µM
IMP1 SM5741 MITC95 [3, 7]: 4.7 µM

CCC[C@H](C(=O)O)[C@H](Cc1cccc(N2CC[C@@H](N)C2)c1)c1nn[nH]n1 [Example 364, (2S)-2-[(1S)-2-{3-[(3R)-3-aminopyrrolidin-1-yl]phenyl}-1-(2H-tetrazol-5-yl)ethyl]pentanoic acid]
IC50 (IMP-1; IMP-1 enzyme 2 pM): 1600 nM
IC50 (NDM-1; [4]): 110 nM
IC50 (VIM-1; VIM-1 enzyme 30 pM): 2.4 nM
NDM1 EC30016 MITC95 [1, 5]: 9.4 µM
VIM1 KP599644 MITC95 [2, 6]: 12.5 µM
IMP1 SM5741 MITC95 [3, 7]: 38 µM

CC(C)C[C@H](C(=O)O)[C@H](Cc1ccc(COC2CCNCC2)c(F)c1)c1nn[nH]n1.O=C(O)C(F)(F)F [Example 447, 4-((4-((2S,3S)-3-carboxy-5-methyl-2-(2H-tetrazol-5-yl)hexyl)-2-fluorobenzyl)oxy)piperidin-1-ium 2,2,2-trifluoroacetate]
IC50 (IMP-1; IMP-1 enzyme 2 pM): 163 nM
IC50 (NDM-1; [4]): 104 nM
IC50 (VIM-1; VIM-1 enzyme 30 pM): 6.35 nM
NDM1 EC30016 MITC95 [1, 5]: 9.375 µM
VIM1 KP599644 MITC95 [2, 6]: 25 µM
IMP1 SM5741 MITC95 [3, 7]: 6.25 µM

CCC[C@H](C(=O)O)[C@H](Cc1cnc(N(C)C)nc1)c1nnn[nH]1 [Example 290, (S)-2-((S)-2-(2-(dimethylamino)pyrimidin-5-yl)-1-(1H-tetrazol-5-yl)ethyl)pentanoic acid]
IC50 (IMP-1; IMP-1 enzyme 2 pM): 14000 nM
IC50 (NDM-1; [4]): 110 nM
IC50 (VIM-1; VIM-1 enzyme 30 pM): 2.1 nM
NDM1 EC30016 MITC95 [1, 5]: 18.8 µM
VIM1 KP599644 MITC95 [2, 6]: 38 µM
IMP1 SM5741 MITC95 [3, 7]: 150 µM

CCC[C@H](C(=O)O)[C@H](Cc1ccc(Cl)cc1)c1nnn[nH]1 [Example 263, (2S)-2-[(1S)-2-(4-chlorophenyl)-1-(1H-tetrazol-5-yl)ethyl]pentanoic acid]
IC50 (IMP-1; IMP-1 enzyme 2 pM): 430 nM
IC50 (NDM-1; [4]): 57 nM
IC50 (VIM-1; VIM-1 enzyme 30 pM): 2.4 nM
NDM1 EC30016 MITC95 [1, 5]: 9.4 µM
VIM1 KP599644 MITC95 [2, 6]: 9.4 µM
IMP1 SM5741 MITC95 [3, 7]: 12.5 µM
